From publication PMC12385234, “In Vitro Inhibitory Effects and Molecular Mechanism of Four Theaflavins on Isozymes of CYP450 and UGTs” (Foods, 2025)
pIC50: −log10 of the molar value. Read-outs that look alike come from different tables or passages of the source.

Assays:
UGT1A4 = biological target: T1, UGT1A4 (Homo sapiens, UniProt P22310); experiment: Inhibition of UGT1A4-catalyzed trifluoperazine glucuronidation, human recombinant UGT
T1 sequence (P22310 29-534): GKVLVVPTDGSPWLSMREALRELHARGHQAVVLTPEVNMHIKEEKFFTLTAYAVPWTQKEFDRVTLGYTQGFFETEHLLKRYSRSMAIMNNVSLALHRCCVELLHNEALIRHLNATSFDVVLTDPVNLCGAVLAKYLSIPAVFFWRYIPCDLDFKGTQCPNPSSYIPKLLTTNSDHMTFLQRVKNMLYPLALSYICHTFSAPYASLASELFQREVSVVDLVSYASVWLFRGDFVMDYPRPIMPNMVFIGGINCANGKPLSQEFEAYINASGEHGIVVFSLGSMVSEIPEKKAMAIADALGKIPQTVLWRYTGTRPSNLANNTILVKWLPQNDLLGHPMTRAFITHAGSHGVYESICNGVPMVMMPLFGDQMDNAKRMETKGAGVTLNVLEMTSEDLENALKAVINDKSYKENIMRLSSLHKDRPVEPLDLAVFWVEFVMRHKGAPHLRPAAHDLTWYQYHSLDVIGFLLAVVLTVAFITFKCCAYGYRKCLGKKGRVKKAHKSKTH
Description: (§1) These enzymes were then incubated with each compound (Table 1). Subsequently, the corresponding substrates for each UGT isoenzyme were added. The inhibitory effects of the respective products were evaluated by measuring their generation. […] Each incubation mixture was prepared in triplicate, containing 0.25 mg/mL recombinant enzyme, 5 mM UDPGA, and 10 mM propylthiouracil, among other conditions.

CYP3A4 = CYP3A4 (Homo sapiens, UniProt P08684); experiment: Inhibition of CYP3A4 (testosterone, midazolam) in pooled human liver microsomes
CYP3A4, sequence (P08684 whole entry): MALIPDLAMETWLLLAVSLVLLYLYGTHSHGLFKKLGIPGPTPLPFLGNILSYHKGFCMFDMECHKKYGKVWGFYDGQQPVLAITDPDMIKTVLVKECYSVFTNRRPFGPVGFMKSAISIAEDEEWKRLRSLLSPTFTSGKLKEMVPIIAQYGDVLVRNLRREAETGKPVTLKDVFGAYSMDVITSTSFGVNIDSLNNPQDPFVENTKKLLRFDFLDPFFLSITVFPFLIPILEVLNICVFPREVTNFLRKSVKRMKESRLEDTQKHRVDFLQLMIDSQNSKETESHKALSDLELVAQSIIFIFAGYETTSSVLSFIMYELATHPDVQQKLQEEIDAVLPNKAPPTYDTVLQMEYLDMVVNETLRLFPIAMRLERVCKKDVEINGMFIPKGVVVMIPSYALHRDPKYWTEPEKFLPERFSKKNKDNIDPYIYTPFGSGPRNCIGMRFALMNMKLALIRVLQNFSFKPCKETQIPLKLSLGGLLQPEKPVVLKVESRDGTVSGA
Description: (§2) The virological tests for AIDS, hepatitis B, and hepatitis C of the donors were negative. The final reaction volume was 150 µL, and the reaction was carried out in a 96-well deep-well cell plate made of polypropylene. The reaction was conducted at a temperature of 37 °C. […]
(§3) The AB SCIEX 4000/5000 HPLC-MS/MS system, integrated with the HTS PAL autosampler (CTC Analytics AG, Basel, Switzerland) and Shimadzu LC 20 series HPLC (Shimadzu Corporation, Kyoto, Japan), was used for analysis. […] Quantification was achieved by calculating the area under the curve (AUC) for each MRM transition. […]
(§4) In accordance with the DDI guidelines from the NMPA and the US FDA, the inhibition of CYP1A2, 2B6, 2C8, 2C9, 2C19, 2D6, and 3A4 activity by the test article was assessed. The inhibitory effect was determined by measuring the reduction in metabolite formation of respective probe substrates, expressed as relative activity compared to the negative control (NC), using the following formula: Relative activity (% of NC) = (formation of metabolites in test or PC/formation in NC) × 100. […] Data processing: When the calculated value is less than 100, three significant digits are retained. When the calculated value is greater than or equal to 100, only the integer part is retained.

UGT1A3 = biological target: T2, UGT1A3 (Homo sapiens, UniProt P35503); experiment: Inhibition of UGT1A3-mediated beta-estradiol glucuronidation, human recombinant UGT
T2 sequence (P35503 29-534): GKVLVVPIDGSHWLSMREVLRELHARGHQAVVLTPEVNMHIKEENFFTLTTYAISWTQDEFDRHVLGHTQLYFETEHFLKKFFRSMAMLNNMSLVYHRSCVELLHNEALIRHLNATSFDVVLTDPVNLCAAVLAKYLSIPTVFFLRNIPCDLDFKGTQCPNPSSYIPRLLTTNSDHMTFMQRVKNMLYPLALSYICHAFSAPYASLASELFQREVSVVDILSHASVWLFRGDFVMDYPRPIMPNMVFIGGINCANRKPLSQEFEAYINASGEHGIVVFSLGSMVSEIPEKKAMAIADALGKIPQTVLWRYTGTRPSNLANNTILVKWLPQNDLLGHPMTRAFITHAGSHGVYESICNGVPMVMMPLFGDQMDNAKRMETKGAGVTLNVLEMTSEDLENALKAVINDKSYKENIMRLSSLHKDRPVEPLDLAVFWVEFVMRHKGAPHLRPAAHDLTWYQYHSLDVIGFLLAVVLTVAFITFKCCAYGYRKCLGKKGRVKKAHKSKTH
Description: as §1

UGT1A1 [1] = biological target: T3, UGT1A1 (Homo sapiens, UniProt P22309); experiment: Inhibition of UGT1A1-catalyzed beta-estradiol glucuronidation, human recombinant UGT
T3 sequence (P22309 26-533): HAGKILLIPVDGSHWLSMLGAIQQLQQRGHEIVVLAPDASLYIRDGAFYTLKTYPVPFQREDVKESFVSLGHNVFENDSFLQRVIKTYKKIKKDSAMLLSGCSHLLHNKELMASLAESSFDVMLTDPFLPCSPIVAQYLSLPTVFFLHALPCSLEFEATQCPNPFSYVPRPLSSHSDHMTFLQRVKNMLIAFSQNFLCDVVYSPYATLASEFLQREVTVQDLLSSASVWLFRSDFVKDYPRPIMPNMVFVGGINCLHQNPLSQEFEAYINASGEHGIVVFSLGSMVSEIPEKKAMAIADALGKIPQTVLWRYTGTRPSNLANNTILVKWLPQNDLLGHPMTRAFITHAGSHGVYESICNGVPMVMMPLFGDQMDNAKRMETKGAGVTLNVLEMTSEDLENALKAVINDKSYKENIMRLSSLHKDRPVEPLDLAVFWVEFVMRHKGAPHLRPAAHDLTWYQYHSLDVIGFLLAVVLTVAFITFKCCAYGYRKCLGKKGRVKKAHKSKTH
Description: as §1

CYP1A2 = biological target: T4, CYP1A2 (Homo sapiens, UniProt P05177); experiment: Inhibition of CYP1A2-catalyzed phenacetin metabolism in pooled human liver microsomes
T4 sequence (P05177 1-516): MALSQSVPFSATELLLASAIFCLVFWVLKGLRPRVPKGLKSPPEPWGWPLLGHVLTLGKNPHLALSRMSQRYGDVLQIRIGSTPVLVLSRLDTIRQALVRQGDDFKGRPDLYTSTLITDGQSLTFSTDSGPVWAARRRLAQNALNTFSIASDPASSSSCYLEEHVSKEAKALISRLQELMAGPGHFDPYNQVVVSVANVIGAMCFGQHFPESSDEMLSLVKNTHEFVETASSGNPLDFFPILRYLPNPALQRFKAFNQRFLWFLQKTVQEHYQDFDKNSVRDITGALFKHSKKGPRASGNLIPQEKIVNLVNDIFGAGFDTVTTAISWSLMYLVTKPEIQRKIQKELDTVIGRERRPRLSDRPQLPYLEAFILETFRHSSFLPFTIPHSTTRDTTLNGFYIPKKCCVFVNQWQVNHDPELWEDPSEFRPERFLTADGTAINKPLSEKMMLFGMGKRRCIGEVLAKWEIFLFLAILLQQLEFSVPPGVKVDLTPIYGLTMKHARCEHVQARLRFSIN
Description: as §2, §3, §4

CYP2C9 = CYP2C9 (Homo sapiens, UniProt P11712); experiment: Inhibition of CYP2C9 (diclofenac) in pooled human liver microsomes
CYP2C9, sequence (P11712 whole entry): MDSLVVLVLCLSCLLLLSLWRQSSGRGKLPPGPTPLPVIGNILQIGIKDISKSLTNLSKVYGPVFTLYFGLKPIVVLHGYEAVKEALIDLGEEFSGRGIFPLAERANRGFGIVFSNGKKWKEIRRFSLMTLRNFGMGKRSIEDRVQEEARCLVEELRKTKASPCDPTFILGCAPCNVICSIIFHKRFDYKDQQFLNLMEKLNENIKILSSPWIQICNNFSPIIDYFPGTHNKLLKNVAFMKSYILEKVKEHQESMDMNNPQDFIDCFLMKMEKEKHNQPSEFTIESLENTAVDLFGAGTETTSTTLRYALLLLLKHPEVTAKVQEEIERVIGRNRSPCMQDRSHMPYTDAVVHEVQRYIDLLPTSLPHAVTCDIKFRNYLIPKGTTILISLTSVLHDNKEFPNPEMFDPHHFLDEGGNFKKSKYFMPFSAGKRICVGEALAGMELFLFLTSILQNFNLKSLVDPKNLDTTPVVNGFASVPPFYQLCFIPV
Description: as §2, §3, §4

CYP2D6 = CYP2D6 (Homo sapiens, UniProt P10635); experiment: Inhibition of CYP2D6 (dextromethorphan) in pooled human liver microsomes
CYP2D6, sequence (P10635 whole entry): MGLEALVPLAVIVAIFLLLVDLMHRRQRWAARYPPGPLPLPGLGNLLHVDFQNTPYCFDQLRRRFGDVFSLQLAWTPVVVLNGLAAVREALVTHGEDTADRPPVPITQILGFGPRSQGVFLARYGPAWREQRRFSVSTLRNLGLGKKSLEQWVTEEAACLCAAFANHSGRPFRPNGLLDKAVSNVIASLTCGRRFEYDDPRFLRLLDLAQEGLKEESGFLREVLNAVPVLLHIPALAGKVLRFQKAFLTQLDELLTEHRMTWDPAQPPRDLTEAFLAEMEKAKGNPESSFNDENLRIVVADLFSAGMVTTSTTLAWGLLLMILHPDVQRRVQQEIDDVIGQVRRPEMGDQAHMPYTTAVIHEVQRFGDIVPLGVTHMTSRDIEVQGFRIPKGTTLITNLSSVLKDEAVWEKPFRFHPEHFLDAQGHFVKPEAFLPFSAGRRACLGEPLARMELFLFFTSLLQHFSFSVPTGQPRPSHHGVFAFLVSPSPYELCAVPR
Description: (§5) The final reaction volume was 150 µL, and the reaction was carried out in a 96-well deep-well cell plate made of polypropylene. The reaction was conducted at a temperature of 37 °C. To ensure that the reaction time was within the linear range of the metabolic rate and to avoid data distortion caused by substrate depletion or product feedback inhibition, the reaction time for each substrate varied as follows: the incubation time for detecting CYP3A4 enzyme activity was 5 min; the incubation time for detecting CYP2B6, CYP2C8, CYP2C9, and CYP2D6 enzyme activities was 10 min each; the incubation time for detecting CYP1A2 and CYP2C19 enzyme activities was 30 min each.
(§6) The AB SCIEX 4000/5000 HPLC-MS/MS system, integrated with the HTS PAL autosampler (CTC Analytics AG, Basel, Switzerland) and Shimadzu LC 20 series HPLC (Shimadzu Corporation, Kyoto, Japan), was used for analysis. […]
(§7) In accordance with the DDI guidelines from the NMPA and the US FDA, the inhibition of CYP1A2, 2B6, 2C8, 2C9, 2C19, 2D6, and 3A4 activity by the test article was assessed. The inhibitory effect was determined by measuring the reduction in metabolite formation of respective probe substrates, expressed as relative activity compared to the negative control (NC), using the following formula: Relative activity (% of NC) = (formation of metabolites in test or PC/formation in NC) × 100. […]

CYP2C19 = CYP2C19 (Homo sapiens, UniProt P33261); experiment: Inhibition of CYP2C19 (S-mephenytoin) in pooled human liver microsomes
CYP2C19, sequence (P33261 whole entry): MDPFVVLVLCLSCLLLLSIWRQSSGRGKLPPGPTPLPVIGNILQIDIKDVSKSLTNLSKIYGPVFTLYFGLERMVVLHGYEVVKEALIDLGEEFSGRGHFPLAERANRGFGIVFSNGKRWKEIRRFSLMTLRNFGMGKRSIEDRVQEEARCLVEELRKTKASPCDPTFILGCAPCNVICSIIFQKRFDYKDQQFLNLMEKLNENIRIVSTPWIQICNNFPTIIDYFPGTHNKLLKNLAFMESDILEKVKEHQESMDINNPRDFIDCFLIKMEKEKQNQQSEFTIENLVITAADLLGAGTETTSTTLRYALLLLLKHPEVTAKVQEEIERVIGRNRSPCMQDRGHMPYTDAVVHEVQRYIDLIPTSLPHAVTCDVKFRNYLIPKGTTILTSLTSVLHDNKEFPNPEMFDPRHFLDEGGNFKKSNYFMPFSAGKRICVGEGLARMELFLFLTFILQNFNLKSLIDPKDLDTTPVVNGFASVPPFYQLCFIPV
Description: as §5, §6, §7

CYP2B6 = biological target: T5, CYP2B6 (Homo sapiens, UniProt P20813); experiment: Inhibition of CYP2B6 (bupropion) in pooled human liver microsomes
T5 sequence (P20813 1-491): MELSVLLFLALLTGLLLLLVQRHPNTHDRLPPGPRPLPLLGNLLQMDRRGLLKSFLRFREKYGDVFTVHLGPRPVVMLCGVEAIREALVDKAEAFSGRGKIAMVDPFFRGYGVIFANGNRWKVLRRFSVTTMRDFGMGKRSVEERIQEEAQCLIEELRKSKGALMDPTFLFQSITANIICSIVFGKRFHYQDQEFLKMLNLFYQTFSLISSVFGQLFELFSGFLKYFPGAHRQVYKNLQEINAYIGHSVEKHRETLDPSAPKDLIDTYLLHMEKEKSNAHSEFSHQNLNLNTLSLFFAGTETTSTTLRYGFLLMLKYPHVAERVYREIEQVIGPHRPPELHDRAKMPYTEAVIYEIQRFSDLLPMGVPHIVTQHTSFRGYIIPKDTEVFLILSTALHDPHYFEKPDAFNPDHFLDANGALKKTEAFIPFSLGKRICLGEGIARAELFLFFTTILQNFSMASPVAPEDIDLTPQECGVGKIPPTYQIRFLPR
Description: as §2, §3, §4

CYP2C8 = biological target: T6, CYP2C8 (Homo sapiens, UniProt P10632); experiment: Inhibition of CYP2C8-mediated amodiaquine metabolism in pooled human liver microsomes
T6 sequence (P10632 1-490): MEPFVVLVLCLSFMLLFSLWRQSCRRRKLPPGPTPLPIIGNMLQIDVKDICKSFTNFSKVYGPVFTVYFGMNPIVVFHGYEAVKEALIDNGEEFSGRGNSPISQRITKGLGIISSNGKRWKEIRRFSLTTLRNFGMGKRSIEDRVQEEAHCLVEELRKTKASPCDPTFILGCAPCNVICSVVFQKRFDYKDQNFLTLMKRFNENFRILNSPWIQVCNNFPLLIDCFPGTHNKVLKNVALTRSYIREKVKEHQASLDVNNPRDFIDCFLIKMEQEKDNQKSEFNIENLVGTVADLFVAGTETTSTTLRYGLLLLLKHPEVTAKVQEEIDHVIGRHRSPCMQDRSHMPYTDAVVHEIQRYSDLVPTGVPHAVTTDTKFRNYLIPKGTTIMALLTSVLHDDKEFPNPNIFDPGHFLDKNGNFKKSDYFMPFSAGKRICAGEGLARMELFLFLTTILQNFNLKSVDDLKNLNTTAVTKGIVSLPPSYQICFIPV
Description: as §2, §3, §4

UGT2B15 = biological target: T7, UGT2B15 (Homo sapiens, UniProt P54855); experiment: Inhibition of UGT2B15-catalyzed 4-trifluoromethyl-7-hydroxycoumarin glucuronidation, human recombinant UGT
T7 sequence (P54855 24-530): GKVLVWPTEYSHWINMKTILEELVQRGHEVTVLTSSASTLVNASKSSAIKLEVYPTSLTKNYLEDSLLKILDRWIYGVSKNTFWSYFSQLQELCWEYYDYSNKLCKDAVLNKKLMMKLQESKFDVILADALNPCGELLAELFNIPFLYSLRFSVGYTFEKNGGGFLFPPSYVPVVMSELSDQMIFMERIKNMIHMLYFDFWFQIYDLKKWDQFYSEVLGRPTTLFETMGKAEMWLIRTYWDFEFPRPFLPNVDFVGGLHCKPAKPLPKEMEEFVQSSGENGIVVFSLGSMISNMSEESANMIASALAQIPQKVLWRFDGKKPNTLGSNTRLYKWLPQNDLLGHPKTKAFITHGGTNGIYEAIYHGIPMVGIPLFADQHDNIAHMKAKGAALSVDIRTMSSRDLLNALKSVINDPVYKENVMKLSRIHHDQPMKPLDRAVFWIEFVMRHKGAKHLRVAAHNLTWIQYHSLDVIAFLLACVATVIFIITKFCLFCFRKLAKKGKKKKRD
Description: as §1

UGT1A1 [2] = settings: cited from earlier work
UGT1A9 = settings: cited from earlier work

Molecule | pIC50 (UGT1A4) | pIC50 (CYP3A4) | pIC50 (CYP3A4; read-out: IC50, CYP3A4-M, pooled HLMs, probe midazolam) | pIC50 (UGT1A3) | pIC50 (UGT1A1 [1]) | pIC50 (CYP1A2) | pIC50 (CYP2C9) | pIC50 (CYP2D6) | pIC50 (CYP2C19) | pIC50 (CYP2B6) | pIC50 (CYP2C8) | pIC50 (UGT2B15) | Inhibition of UGT1A1 (in words) (UGT1A1 [2]) | Inhibition of UGT1A9 (in words) (UGT1A9)
O=c1c(O)cc([C@H]2Oc3cc(O)cc(O)c3C[C@H]2O)cc2c([C@H]3Oc4cc(O)cc(O)c4C[C@H]3O)cc(O)c(O)c12 [Theaflavin, theaflavin] | < 4.70 | < 4.70 | < 4.70 | < 4.70 | 5.41 | < 4.70 | < 4.70 | < 4.70 | < 4.70 | < 4.70 | < 4.70 | < 4.70 |  | 
O=c1c(O)c(-c2ccc(O)c(O)c2)oc2cc(O)cc(O)c12 [quercetin] |  |  |  |  |  |  |  |  |  |  |  |  | strong inhibition | 
(-)-epigallocatechin-3-gallate [EGCG] |  |  |  |  |  |  |  |  |  |  |  |  | moderately inhibit | moderately inhibit
